# Laboratory results taken from paper PMC4814829, “Design, synthesis, crystallization and biological evaluation of new symmetrical biscationic compounds as selective inhibitors of human Choline Kinase α1 (ChoKα1)” (Scientific Reports, 2016).
# Columns and labels:
# MDA-MB-231 cells [1] = assay: Annexin-V/PI assay; type: cell-based, human; conditions: MDA-MB-231, 72 h; positive controls Cis-Pt 50 μM, Etoposide 5 μM
# Description: (§1) Surface exposure of PS on apoptotic cells was measured by flow cytometry with Cytomics FC500 (Beckman Coulter) by adding simultaneously annexin-V conjugated to fluorescein isothiocyanate (FITC) and PI to cells according to the manufacturer′s instructions (Annexin-V Fluos, Roche Diagnostic).
# Jurkat cells [2] = assay: Annexin-V/PI assay; type: cell-based, human; conditions: 72 h, positive controls Cis-Pt 50 μM, Etoposide 5 μM
# Description: as §1
# MCF-7 cells [3] = assay: Annexin-V/PI assay; type: cell-based, human; conditions: MCF-7, 72 h; positive controls Cis-Pt 50 μM, Etoposide 5 μM
# Description: as §1
# HL-60 cells = assay: Antiproliferative MTT assay; type: cell-based; conditions: Homo sapiens, 72 h, mean ± SEM
# Description: (§2) Human T-cell leukemia (Jurkat), human B-cell leukemia (RS 4,11) and human promyelocytic leukemia (HL-60) cells were grown in RPMI-1640 medium (Gibco, Milan, Italy). Breast adenocarcinoma (MCF-7 and MDA-MB-231), human non-small cell lung carcinoma (A549), human cervix carcinoma (HeLa), human prostate adenocarcinoma (PC-3), and human colon adenocarcinoma (HT-29) cells were grown in DMEM medium (Gibco, Milan, Italy). Both media were supplemented with 115 units/mL of penicillin G (Gibco, Milan, Italy), 115 μg/mL of streptomycin (Invitrogen, Milan, Italy) and 10% fetal bovine serum (Invitrogen, Milan, Italy). Stock solutions (10 mM) of the different compounds were obtained by dissolving them in DMSO. Individual wells of 96-well tissue-culture microtiter plates were inoculated with 100 μL of complete medium containing 8 × 10^3 cells. The plates were incubated at 37 °C in a humidified 5% CO2 incubator for 18 h prior to the experiments. After medium removal, 100 μL of fresh medium containing the test compound at different concentrations was added to each well and incubated at 37 °C for 72 h. The percentage of DMSO in the medium in no case exceeded 0.25%.
# MDA-MB-231 cells [4] = assay: Antiproliferative MTT assay; type: cell-based; conditions: Homo sapiens, 72 h, mean ± SEM
# Description: as §2
# Jurkat cells [5] = assay: Antiproliferative MTT assay; type: cell-based; conditions: Homo sapiens, 72 h, mean ± SEM
# Description: as §2
# HT-29 cells = assay: Antiproliferative MTT assay; type: cell-based; conditions: Homo sapiens, 72 h, mean ± SEM
# Description: as §2
# RS4,11 cells = assay: Antiproliferative MTT assay; type: cell-based; conditions: Homo sapiens, 72 h, mean ± SEM
# Description: as §2
# HeLa cells = assay: Antiproliferative MTT assay; type: cell-based; conditions: Homo sapiens, 72 h, mean ± SEM
# Description: as §2
# MCF-7 cells [6] = assay: Antiproliferative MTT assay; type: cell-based; conditions: Homo sapiens, MCF7, 72 h, mean ± SEM
# Description: as §2
# A549 cells = assay: Antiproliferative MTT assay; type: cell-based; conditions: Homo sapiens, 72 h, mean ± SEM
# Description: as §2
# PC-3 cells = assay: Antiproliferative MTT assay; type: cell-based; conditions: Homo sapiens, 72 h, mean ± SEM
# Description: as §2
# HUVEC = assay: Antiproliferative assay in non-tumoral cells; type: cell-based; conditions: Homo sapiens, mean ± SEM
# Description: Human Umbilical Vein Endothelial cells (HUVEC), were prepared from human umbilical-cord veins, as previously described. The adherent cells were maintained in M200 medium added by LSGS (low serum growth supplement), containing FBS, hydrocortisone, hEGF, bFGF, heparin, gentamycin/amphotericin (Life Technologies, Monza, Italy). Once confluent, the cells were detached by trypsin–EDTA solution and used in experiments from the first to sixth passages.
# purified human ChoKα1 = purified human ChoKα1 (Homo sapiens, UniProt P35790); assay: Determination of human choline kinase α1 activity ([methyl-14C]choline incorporation into phosphocholine); type: biochemical; conditions: mean ± SEM, three independent experiments; read-out: IC50 ChoKα1 purified
# Description: The effect of the different inhibitors on human choline kinase (ChoK) was assayed in ChoKα1 purified as previously described[32]. In each experiment DMSO-assays were always run in parallel as a control. DMSO in no case exceeded a concentration of 0.1% in order to avoid unspecific ChoK inhibition. ChoK activity was assayed by measuring the rate of incorporation of ^14C from [methyl-^14C]choline into phosphocholine both in the presence or absence of different inhibitor concentrations. Briefly, the final reaction mixture contained 100 mM Tris (pH 8.5), 10 mM MgCl2, and 10 mM ATP, and 20 ng of purified ChoKα1. […] The assay was stopped by immersing the reaction tubes in boiling water for 3 min. Aliquots of the reaction mixture were applied to the origin of Silica Gel plates in the presence of phosphocholine (0.1 mg) and choline (0.1 mg) as carriers. The chromatography was developed in methanol/0.6% NaCl/28% NH4OH in water (50:50:5, v/v/v) as solvent. Phosphocholine was visualized under exposure to iodine vapor and the corresponding spot was scraped and transferred to scintillation vials for measurement of radioactivity by a Beckman 6000-TA (Madrid, Spain) liquid-scintillation counter. At least three experiments were performed in all assays.
# Human fibroblasts = assay: Antiproliferative assay in non-tumoral cells; type: cell-based; conditions: Fibroblast, mean ± SEM
# Source text: Human fibroblasts from foreskin were isolated as previously described[58] and maintained in DMEM medium with 10% fetal bovine serum added.
# human ChoKα1 = molecular target: T1, human ChoKα1 (Homo sapiens, UniProt P35790); assay: Tryptophan fluorescence quenching; type: binding; conditions: mean ± S.D. of at least three independent experiments; 25 °C, enzyme 1 μM; read-out: HsChoKα1 Kd
# T1 construct: made in house
# Description: All compounds were prepared in 100% DMSO. Their Kds against human ChoKα1 were measured by monitoring the quenching of tryptophan fluorescence. All experiments were performed in a Cary Eclipse spectrofluorometer (Varian) at 25 °C with the enzymes at 1 μM, and concentrations of compounds varying from 0.1 to 5 μM for ChoKα1 in 25 mM Tris, 150 mM NaCl, pH 7.5. Fluorescence emission spectra were recorded in the 300–400 nm range with an excitation wavelength of 280 nm, with slit width of 5 nm. Controls were determined by incubating the enzymes with equivalent amounts of DMSO. As indicated previously, data analysis was performed in Prism (GraphPad software) considering a model with a single binding site (Eq. 1), where F0 is the intrinsic fluorescence of the enzyme in the absence of quencher (Q), F1 is the observed fluorescence at a given quencher concentration, fa is the fractional degree of fluorescence, and Kd is the dissociation constant.
# PBL (+Pha) = assay: Antiproliferative assay in non-tumoral cells (MTT); type: cell-based; conditions: Homo sapiens, non-tumoral cells stimulated with phytohematoagglutinin, 72 h, mean ± SEM
# Description: (§3) Peripheral mononuclear cells (PBMC) from healthy donors were obtained by separation on Lymphoprep (Fresenius KABI Norge AS) gradient. After extensive washing, cells were resuspended (1 × 10^6 cells/mL) in RPMI-1640 with 10% fetal bovine serum and incubated overnight. For cytotoxicity evaluations in proliferating PBL cultures, non-adherent cells were resuspended at 5 × 10^5 cells/mL in growth medium, containing 2.5 μg/mL PHA (Irvine Scientific). Different concentrations of the test compounds were added, and viability was determined 72 h later by the MTT test. For cytotoxicity evaluations in resting PBL cultures, non-adherent cells were resuspended (5 × 10^5 cells/mL) and treated for 72 h with the test compounds, as described above.
# PBL (resting) = assay: Antiproliferative assay in non-tumoral cells (MTT); type: cell-based; conditions: Homo sapiens, 72 h, mean ± SEM
# Description: as §3
# [7] = Solubility in crystallization mother liquor (crystal soaking); type: physicochemical; conditions: 20% PEG 3350, 0.25 M potassium isothiocyanate, 10% DMSO, compound 50 mM
# Description: ChoKα1 at 20 mg/ml in buffer 25 mM Tris/HCl, 150 mM NaCl pH 7.5 was used as the protein solution. The sitting-drop vapor-diffusion method was used to produce apo-crystals by mixing 0.5 μl of the protein solution and an equal volume of mother liquor (crystals appeared in 20% polyethylene glycol [PEG] 3350 and 0.25 M potassium isothiocyanate). Tetragonal crystals (space group P43212) grew within in 3–4 days and were soaked in 2 μL of the mother liquor with 0.2 μL of a dilution 500 mM of compounds 10a, 10g, 10h, 10k, and 10l in DMSO (DMSO was at 10% final concentration in the mix whereas compounds were at 50 mM) for two days. Only crystals soaked with compound 10a contained the compound. The crystals used in this study were cryoprotected in mother-liquor solutions containing 20% ethylenglycol and frozen in a nitrogen gas stream cooled to 100 K.
# T1 sequence (P35790 whole entry): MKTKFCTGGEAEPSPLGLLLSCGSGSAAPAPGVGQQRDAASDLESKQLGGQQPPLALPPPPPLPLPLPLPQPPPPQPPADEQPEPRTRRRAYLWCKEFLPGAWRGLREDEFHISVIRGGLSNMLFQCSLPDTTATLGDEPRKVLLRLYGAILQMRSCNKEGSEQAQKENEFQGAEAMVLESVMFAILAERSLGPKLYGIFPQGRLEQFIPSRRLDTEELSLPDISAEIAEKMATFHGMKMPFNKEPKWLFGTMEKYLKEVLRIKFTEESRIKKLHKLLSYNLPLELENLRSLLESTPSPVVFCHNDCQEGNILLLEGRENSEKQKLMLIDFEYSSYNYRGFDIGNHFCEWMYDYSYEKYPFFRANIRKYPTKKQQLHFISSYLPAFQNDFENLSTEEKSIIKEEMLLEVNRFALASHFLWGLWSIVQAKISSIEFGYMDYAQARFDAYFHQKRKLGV
# Chain of purified human ChoKα1 (P35790 whole entry): as above
compound,measurement,setting,value
N.N.[Cl][Pt][Cl] [Cis-Pt],Apoptotic cells (annexin-V/PI),MDA-MB-231 cells [1],induce significant apoptosis
same,Apoptotic cells (annexin-V/PI),Jurkat cells [2],induce significant apoptosis
same,Apoptotic cells (annexin-V/PI),MCF-7 cells [3],induce significant apoptosis
"CN(c1ccc(Cl)cc1)c1cc[n+](Cc2ccc(OCCOc3ccc(C[n+]4ccc(N(C)c5ccc(Cl)cc5)c5ccccc54)cc3)cc2)c2ccccc12.[Br-].[Br-] [Compound 10g, 1,1′-(((ethane-1,2-diylbis(oxy))bis(4,1-phenylene))bis(methylene))bis(4-((4-chlorophenyl)(methyl)amino)quinolinium) bromide]",GI50,HL-60 cells,710 ± 240 nM
same,GI50,MDA-MB-231 cells [4],190 ± 9 nM
same,GI50,Jurkat cells [5],98 ± 31 nM
same,GI50,HT-29 cells,750 ± 120 nM
same,GI50,"RS4,11 cells",150 ± 40 nM
same,GI50,HeLa cells,250 ± 60 nM
same,GI50,MCF-7 cells [6],460 ± 63 nM
same,GI50,A549 cells,110 ± 18 nM
same,GI50,PC-3 cells,260 ± 10 nM
same,GI50,HUVEC,10400 ± 3500 nM
same,melting point,,178 to 180 °C
same,IC50,purified human ChoKα1,3270 ± 660 nM
same,GI50,Human fibroblasts,7400 ± 2400 nM
same,Kd,human ChoKα1,517 ± 99 nM
same,GI50,PBL (+Pha),550 ± 110 nM
same,GI50,PBL (resting),980 ± 250 nM
"Clc1ccc2c(N3CCCC3)cc[n+](Cc3ccc(OCCOc4ccc(C[n+]5ccc(N6CCCC6)c6ccc(Cl)cc65)cc4)cc3)c2c1.[Br-].[Br-] [Compound 10l, 1,1′-(((ethane-1,2-diylbis(oxy))bis(4,1-phenylene))bis(methylene))bis(7-chloro-4-(pyrrolidin-1-yl)quinolinium) bromide]",GI50,HL-60 cells,160 ± 70 nM
same,GI50,MDA-MB-231 cells [4],50 ± 20 nM
same,GI50,Jurkat cells [5],7 ± 3 nM
same,GI50,HT-29 cells,560 ± 210 nM
same,GI50,"RS4,11 cells",420 ± 140 nM
same,GI50,HeLa cells,370 ± 180 nM
same,GI50,MCF-7 cells [6],22 ± 7 nM
same,GI50,A549 cells,140 ± 60 nM
same,GI50,PC-3 cells,800 ± 200 nM
same,GI50,HUVEC,11400 ± 5900 nM
same,IC50,purified human ChoKα1,920 ± 10 nM
same,GI50,Human fibroblasts,9600 ± 1300 nM
same,Kd,human ChoKα1,357 ± 39 nM
same,GI50,PBL (+Pha),490 ± 150 nM
same,GI50,PBL (resting),3800 ± 550 nM
same,Solubility in the mother liquor,[7],insoluble in the mother liquor
